{"source": "patent US4454137A", "about": "“Feed compositions containing copper salts of 2-hydroxypyridine-N-oxides” (SmithKline Beckman Corporation, priority 1982, dated 1984)", "key": {"post weanling pigs [1]": {"tested_on": "post weanling pigs", "assay": "Pig feeding test, corn and rye diets (Example 7)", "assay_type": "in vivo", "conditions": "10 ppm", "description": "Each replication contained 8 treatment groups in turn comprising 2 pigs per pen. The experiment was run similar to that of Example 6 except another control having a rye diet was added."}, "inoculum (cecal)": {"tested_on": "inoculum (cecal)", "assay": "In vitro swine procedure, cecal inoculum incubation (VFA, lysine, glucose, L-lactic acid)", "set-up": "species or system swine (Yorkshire barrow)"}, "inoculum (ileal)": {"tested_on": "inoculum (ileal)", "assay": "In vitro swine procedure, ileal inoculum incubation (VFA, lysine, glucose, L-lactic acid)", "set-up": "species or system swine (Yorkshire barrow)"}, "post weanling pigs [2]": {"tested_on": "post weanling pigs", "assay": "Post weanling pig feeding test, corn based pre-starter feed (Example 6)", "assay_type": "in vivo", "conditions": "10 ppm; corn ration", "source_text": "Each replication contained 8 treatment groups in turn comprising 2 pigs per pen."}, "[3]": {"conditions": "W. Barker et al., J. Antibiotics 32 1096 (1979); cited from earlier work"}, "[4]": {"conditions": "ileal, 167 ppm, positive control of run 1(a), DMSO series (carrier not given)"}}, "note": "“And” between values parts separate entries of the source, which are not always exact repeats. Equal entries are not always repeated. Where two headings read alike, the source gives them in different places."}
{"compound": "virginiamycin", "values": [{"measurement": "Average Daily Gain, 0-23 days", "setting": "post weanling pigs [1]; Vm + Cont. (corn diet)", "value": 0.582, "unit": "kg"}, {"measurement": "Average Daily Gain, 0-23 days", "setting": "post weanling pigs [1]; Vm + Rye (rye diet)", "value": 0.529, "unit": "kg"}, {"measurement": "VFA (total of volatile fatty acids)", "setting": "inoculum (cecal)", "value": 94}, {"measurement": "GLU (glucose)", "setting": "inoculum (cecal); cecal, 0.17 ppm", "value": "30 % of blank control values"}, {"measurement": "LYS (lysine)", "setting": "inoculum (cecal); cecal, 0.17 ppm", "value": "71 % of blank control values"}, {"measurement": "GLU (glucose)", "setting": "inoculum (cecal); cecal, 1.67 ppm", "value": "72 % of blank control values"}, {"measurement": "LYS (lysine)", "setting": "inoculum (cecal); cecal, 1.67 ppm", "value": "74 % of blank control values"}, {"measurement": "VFA (total of volatile fatty acids)", "setting": "inoculum (cecal); cecal, 1.67 ppm", "value": "100 % of blank control values"}, {"measurement": "GLU (glucose)", "setting": "inoculum (cecal); cecal, 16.67 ppm", "value": "524 % of blank control values"}, {"measurement": "LAC (L-lactic acid)", "setting": "inoculum (cecal); cecal, 16.67 ppm", "value": "35 % of blank control values"}, {"measurement": "LYS (lysine)", "setting": "inoculum (cecal); cecal, 16.67 ppm", "value": "107 % of blank control values"}, {"measurement": "VFA (total of volatile fatty acids)", "setting": "inoculum (cecal); cecal, 16.67 ppm", "value": "83 % of blank control values"}, {"measurement": "GLU (glucose)", "setting": "inoculum (cecal); cecal, 167 ppm", "value": "732 % of blank control values"}, {"measurement": "LAC (L-lactic acid)", "setting": "inoculum (cecal); cecal, 167 ppm", "value": "49 % of blank control values"}, {"measurement": "LYS (lysine)", "setting": "inoculum (cecal); cecal, 167 ppm", "value": "172 % of blank control values"}, {"measurement": "VFA (total of volatile fatty acids)", "setting": "inoculum (cecal); cecal, 167 ppm", "value": "89 % of blank control values"}, {"measurement": "GLU (glucose)", "setting": "inoculum (ileal); ileal, 167 ppm", "value": "133 % of blank control values"}, {"measurement": "LAC (L-lactic acid)", "setting": "inoculum (ileal); ileal, 167 ppm", "value": "29 % of blank control values"}, {"measurement": "LYS (lysine)", "setting": "inoculum (ileal); ileal, 167 ppm", "value": "134 % of blank control values"}, {"measurement": "GLU (glucose)", "setting": "inoculum (ileal); [4]", "value": "101 % of blank control values"}, {"measurement": "LAC (L-lactic acid)", "setting": "inoculum (ileal); [4]", "value": "16 % of blank control values"}, {"measurement": "LYS (lysine)", "setting": "inoculum (ileal); [4]", "value": "167 % of blank control values"}, {"measurement": "VFA (total of volatile fatty acids)", "setting": "inoculum (ileal); [4]", "value": "14 % of blank control values"}, {"measurement": "Average daily gain (0-21 days)", "setting": "post weanling pigs [2]", "value": ".667"}, {"measurement": "Feed/gain", "setting": "post weanling pigs [2]", "value": 2.56}, {"measurement": "Feed/gain, percent in parentheses (control 100%)", "setting": "post weanling pigs [2]", "value": 97.4, "unit": "%"}]}
{"compound": "O=[N+]([O-])c1ccc([O-])[n+]([O-])c1.O=[N+]([O-])c1ccc([O-])[n+]([O-])c1.[Cu+2]", "note": "[5-Nitro-2-hydroxypyridine-N--oxide, Cu^++]", "values": [{"measurement": "LYS (lysine)", "setting": "inoculum (ileal)", "value": 109}, {"measurement": "GLU (glucose)", "setting": "inoculum (ileal); ileal, 167 ppm", "value": "110 % of blank control values and 104 % of blank control values"}, {"measurement": "LAC (L-lactic acid)", "setting": "inoculum (ileal); ileal, 167 ppm", "value": "160 % of blank control values and 106 % of blank control values"}, {"measurement": "LYS (lysine)", "setting": "inoculum (ileal); ileal, 167 ppm", "value": "159 % of blank control values"}, {"measurement": "VFA (total of volatile fatty acids)", "setting": "inoculum (ileal); ileal, 167 ppm", "value": "47 % of blank control values and 48 % of blank control values"}]}
{"compound": "O=S(=O)([O-])[O-].[Cu+2]", "note": "[Copper sulfate]", "values": [{"measurement": "GLU (glucose)", "setting": "inoculum (ileal); ileal, 3.3 ppm", "value": "109 % of blank control values"}, {"measurement": "LAC (L-lactic acid)", "setting": "inoculum (ileal); ileal, 3.3 ppm", "value": "113 % of blank control values"}, {"measurement": "LYS (lysine)", "setting": "inoculum (ileal); ileal, 3.3 ppm", "value": "107 % of blank control values"}, {"measurement": "VFA (total of volatile fatty acids)", "setting": "inoculum (ileal); ileal, 3.3 ppm", "value": "99 % of blank control values"}, {"measurement": "GLU (glucose)", "setting": "inoculum (ileal); ileal, 33.3 ppm", "value": "98 % of blank control values"}, {"measurement": "LAC (L-lactic acid)", "setting": "inoculum (ileal); ileal, 33.3 ppm", "value": "104 % of blank control values"}, {"measurement": "VFA (total of volatile fatty acids)", "setting": "inoculum (ileal); ileal, 33.3 ppm", "value": "99 % of blank control values"}, {"measurement": "GLU (glucose)", "setting": "inoculum (ileal); ileal, 333.33 ppm", "value": "113 % of blank control values"}, {"measurement": "LAC (L-lactic acid)", "setting": "inoculum (ileal); ileal, 333.33 ppm", "value": "137 % of blank control values"}, {"measurement": "LYS (lysine)", "setting": "inoculum (ileal); ileal, 333.33 ppm", "value": "107 % of blank control values"}, {"measurement": "VFA (total of volatile fatty acids)", "setting": "inoculum (ileal); ileal, 333.33 ppm", "value": "47 % of blank control values"}]}
{"compound": "COc1ccc(=O)n([O-])c1C.COc1ccc(=O)n([O-])c1C.[Cu+2]", "note": "[copper salt of 2-hydroxy-5-methoxy-6-methylpyridine-N-oxide]", "values": [{"measurement": "antimicrobial activity relative to iron salt and ligand parent", "setting": "[3]", "value": "less antimicrobial activity than does either the corresponding iron salt or the ligand parent"}]}
